Reference: patent US9302999B2, “Substituted triazoles as herbicides” (E. I. DU PONT DE NEMOURS AND COMPANY, priority 2012, dated 2016)

Key:
Type in all cases: in vivo
[1] = system: johnsongrass (Sorghum halepense); test: Test C pre-/postemergence: johnsongrass
How it was run: (§1)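 Preemergence on seeds in loam/sand, postemergence on 2–18 cm (1–4-leaf) plants in peat-based medium; compounds in non-phytotoxic solvent with surfactant. After 13–15 days in greenhouse, visual rating versus controls, 0 (no effect) to 100 (complete control).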

[2] = system: winter wheat (Triticum aestivum); test: Test C pre-/postemergence: winter wheat
How it was run: as §1

[3] = system: galium (catchweed bedstraw, Galium aparine); test: Test C pre-/postemergence: galium
How it was run: as §1

corn (Zea mays) [4] = test: Test A pre-/postemergence: corn
How it was run: (§2)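 Plants in loam–sand blend were treated with test chemicals in non-phytotoxic solvent with surfactant, either as preemergence directed soil spray or postemergence at 2–10 cm, one- to two-leaf stage. After about ten days in greenhouse, injury was rated visually against untreated controls on a 0–100 scale (100 = complete control).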

corn (Zea mays) [5] = test: Test C pre-/postemergence: corn
How it was run: as §1

[6] = system: pigweed (Amaranthus retroflexus); test: Test A pre-/postemergence: pigweed
How it was run: as §2

[7] = system: chickweed (common chickweed, Stellaria media); test: Test C postemergence: chickweed
How it was run: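 Crop and weed plants were grown in peat-vermiculite medium and treated postemergence at the 1- to 4-leaf stage (2-18 cm tall). After 13-15 days in a greenhouse, each species was rated visually against untreated controls on a 0-100 scale (0 no effect, 100 complete control).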

[8] = system: nutsedge, yellow (yellow nutsedge, Cyperus esculentus); test: Test C pre-/postemergence: nutsedge, yellow
How it was run: as §1

soybean (Glycine max) = test: Test C pre-/postemergence: soybean
How it was run: as §1

[9] = system: velvetleaf (Abutilon theophrasti); test: Test C pre-/postemergence: velvetleaf
How it was run: as §1

[10] = system: foxtail, giant (giant foxtail, Setaria faberii); test: Test C pre-/postemergence: foxtail, giant
How it was run: as §1

[11] = system: morningglory (Ipomoea coccinea); test: Test C pre-/postemergence: morningglory
How it was run: as §1

[12] = Postemergence, 31 g ai/ha, scale 0 to 100 (0 no effect, 100 complete control)
[13] = Postemergence, 62 g ai/ha, scale 0 to 100 (0 no effect, 100 complete control)
[14] = Postemergence, 125 g ai/ha, scale 0 to 100, 0 no effect, 100 complete control
[15] = Postemergence, 250 g ai/ha, scale 0 to 100 (0 no effect, 100 complete control)
[16] = Preemergence, 31 g ai/ha, scale 0 (no effect) to 100 (complete control)
[17] = Preemergence, 62 g ai/ha, scale of 0 to 100, 0 is no effect, 100 is complete control
[18] = Preemergence, 125 g ai/ha, scale 0 to 100, 0 no effect, 100 complete control
[19] = Preemergence, 250 g ai/ha, scale 0 to 100, 0 no effect, 100 complete control
[20] = Postemergence, 125 g ai/ha, 0 to 100 scale, 0 is no effect, 100 is complete control
[21] = Postemergence, 500 g ai/ha, 0 to 100 scale, 0 is no effect, 100 is complete control
[22] = Preemergence, 125 g ai/ha, 0 to 100 scale where 0 is no effect and 100 is complete control
[23] = Preemergence, 500 g ai/ha, 0 to 100 scale (0 no effect, 100 complete control)
[24] = Postemergence, 250 g ai/ha, scale 0 to 100
[25] = 31 g ai/ha, scale 0 to 100 (0 no effect, 100 complete control)
[26] = 62 g ai/ha, scale 0 to 100 (0 no effect, 100 complete control)
[27] = 125 g ai/ha, scale 0 to 100, 0 no effect, 100 complete control

CCCc1nn(-c2ccc(C(F)(F)F)c(F)c2)nc1Oc1ccnc(C(F)(F)F)c1 [Compound 185]
40: Plant response rating, Wheat [2, 17] | Plant response rating, Wheat [2, 18] | Plant response rating, Soybean (soybean (Glycine max); [12]) | Plant response rating, Soybean (soybean (Glycine max); [18]) | Plant response rating, Soybean (soybean (Glycine max); [19]) | Plant response rating, Foxtail, Giant [10, 12]
20: Plant response rating, Wheat [2, 15] | Plant response rating, Corn (corn (Zea mays) [4]; [20]) | Plant response rating, Corn (corn (Zea mays) [5]; [13])
98: Plant response rating, Foxtail, Giant [10, 24] | Plant response rating, Morningglory [11, 13]
30: Plant response rating, Johnsongrass [1, 13] | Plant response rating, Corn (corn (Zea mays) [4]; [23])
45: Plant response rating, Soybean (soybean (Glycine max); [13]) | Plant response rating, Soybean (soybean (Glycine max); [14]) | Plant response rating, Morningglory [11, 16]
95: Plant response rating, Chickweed [7, 27] | Plant response rating, Chickweed ([7]; 250 g ai/ha, scale 0 to 100)
80: Plant response rating, Johnsongrass [1, 18] | Plant response rating, Galium [3, 13] | Plant response rating, Galium [3, 16] | Plant response rating, Velvetleaf [9, 13] | Plant response rating, Velvetleaf [9, 17] | Plant response rating, Foxtail, Giant [10, 13]
50: Corn plant response rating (corn (Zea mays) [4]; [21])
65: Plant response rating, Johnsongrass [1, 14]
35: Plant response rating, Corn (corn (Zea mays) [5]; [18]) | Plant response rating, Corn (corn (Zea mays) [5]; [19])
0: Plant response rating, Nutsedge, Yellow [8, 16] | Plant response rating, Nutsedge, Yellow [8, 17] | Plant response rating, Nutsedge, Yellow [8, 18]
70: Plant response rating, Johnsongrass [1, 17] | Plant response rating, Galium [3, 12] | Plant response rating, Chickweed [7, 25] | Plant response rating, Morningglory [11, 18]
15: Plant response rating, Wheat [2, 13] | Plant response rating, Wheat [2, 14] | Plant response rating, Corn (corn (Zea mays) [5]; [12]) | Plant response rating, Nutsedge, Yellow [8, 15]
10: Plant response rating, Johnsongrass [1, 12] | Plant response rating, Wheat [2, 16] | Plant response rating, Corn (corn (Zea mays) [4]; [22]) | Plant response rating, Nutsedge, Yellow [8, 12] | Plant response rating, Nutsedge, Yellow [8, 13] | Plant response rating, Nutsedge, Yellow [8, 14] | Plant response rating, Soybean (soybean (Glycine max); [17])
75: Plant response rating, Johnsongrass [1, 15]
5: Plant response rating, Wheat [2, 12] | Plant response rating, Corn (corn (Zea mays) [5]; [16]) | Plant response rating, Corn (corn (Zea mays) [5]; [17]) | Plant response rating, Nutsedge, Yellow [8, 19] | Plant response rating, Soybean (soybean (Glycine max); [16])
25: Plant response rating, Johnsongrass [1, 16] | Plant response rating, Corn (corn (Zea mays) [5]; [14]) | Plant response rating, Corn (corn (Zea mays) [5]; [24])
100: Plant response rating, Johnsongrass [1, 19] | Plant response rating, Galium [3, 17] | Plant response rating, Galium [3, 18] | Plant response rating, Galium [3, 19] | Plant response rating, Pigweed [6, 20] | Pigweed plant response rating [6, 21] | Plant response rating, Pigweed [6, 22] | Plant response rating, Pigweed [6, 23] | Plant response rating, Velvetleaf [9, 18] | Plant response rating, Velvetleaf [9, 19] | Plant response rating, Foxtail, Giant [10, 16] | Plant response rating, Foxtail, Giant [10, 17] | Plant response rating, Foxtail, Giant [10, 18] | Plant response rating, Foxtail, Giant [10, 19] | Plant response rating, Morningglory [11, 14] | Plant response rating, Morningglory [11, 15] | Plant response rating, Morningglory [11, 19]
55: Plant response rating, Wheat [2, 19] | Plant response rating, Soybean (soybean (Glycine max); [15]) | Plant response rating, Velvetleaf [9, 12] | Plant response rating, Morningglory [11, 17]
60: Plant response rating, Velvetleaf [9, 16]
90: Plant response rating, Galium [3, 14] | Plant response rating, Galium [3, 15] | Plant response rating, Velvetleaf [9, 15] | Plant response rating, Foxtail, Giant [10, 14] | Plant response rating, Morningglory [11, 12]
85: Plant response rating, Chickweed [7, 26] | Plant response rating, Velvetleaf [9, 14]

CCOc1nn(-c2ccc(F)cc2)nc1Cc1ccnc(C(F)F)c1 [Compound 195]
60: Corn plant response rating (corn (Zea mays) [4]; [21]) | Plant response rating, Corn (corn (Zea mays) [5]; [12]) | Plant response rating, Velvetleaf [9, 14]
30: Plant response rating, Wheat [2, 15] | Plant response rating, Wheat [2, 19] | Plant response rating, Corn (corn (Zea mays) [4]; [20]) | Plant response rating, Corn (corn (Zea mays) [4]; [23]) | Plant response rating, Morningglory [11, 16]
10: Plant response rating, Wheat [2, 12] | Plant response rating, Galium [3, 16] | Plant response rating, Nutsedge, Yellow [8, 12] | Plant response rating, Velvetleaf [9, 16]
65: Plant response rating, Soybean (soybean (Glycine max); [14]) | Plant response rating, Soybean (soybean (Glycine max); [15]) | Plant response rating, Velvetleaf [9, 15] | Plant response rating, Morningglory [11, 12]
25: Plant response rating, Wheat [2, 14] | Plant response rating, Nutsedge, Yellow [8, 14] | Plant response rating, Nutsedge, Yellow [8, 15] | Plant response rating, Soybean (soybean (Glycine max); [19]) | Plant response rating, Velvetleaf [9, 17]
80: Plant response rating, Johnsongrass [1, 13] | Plant response rating, Galium [3, 12] | Plant response rating, Galium [3, 17] | Plant response rating, Corn (corn (Zea mays) [5]; [24]) | Plant response rating, Nutsedge, Yellow [8, 19]
100: Plant response rating, Johnsongrass [1, 19] | Plant response rating, Pigweed [6, 20] | Pigweed plant response rating [6, 21] | Plant response rating, Pigweed [6, 22] | Plant response rating, Pigweed [6, 23] | Plant response rating, Foxtail, Giant [10, 18] | Plant response rating, Foxtail, Giant [10, 19]
20: Plant response rating, Wheat [2, 13] | Plant response rating, Corn (corn (Zea mays) [4]; [22]) | Plant response rating, Nutsedge, Yellow [8, 13]
40: Plant response rating, Soybean (soybean (Glycine max); [12]) | Plant response rating, Soybean (soybean (Glycine max); [13])
95: Plant response rating, Johnsongrass [1, 14] | Plant response rating, Johnsongrass [1, 15] | Plant response rating, Galium [3, 13] | Plant response rating, Galium [3, 14] | Plant response rating, Galium [3, 15] | Plant response rating, Galium [3, 19] | Plant response rating, Chickweed [7, 25] | Plant response rating, Chickweed [7, 26] | Plant response rating, Morningglory [11, 15]
55: Plant response rating, Johnsongrass [1, 12] | Plant response rating, Velvetleaf [9, 18]
50: Plant response rating, Velvetleaf [9, 13] | Plant response rating, Morningglory [11, 17]
35: Plant response rating, Corn (corn (Zea mays) [5]; [19]) | Plant response rating, Foxtail, Giant [10, 12] | Plant response rating, Foxtail, Giant [10, 13]
75: Plant response rating, Corn (corn (Zea mays) [5]; [13]) | Plant response rating, Foxtail, Giant [10, 14] | Plant response rating, Morningglory [11, 18]
0: Plant response rating, Wheat [2, 16] | Plant response rating, Corn (corn (Zea mays) [5]; [16]) | Plant response rating, Nutsedge, Yellow [8, 16] | Plant response rating, Nutsedge, Yellow [8, 17] | Plant response rating, Soybean (soybean (Glycine max); [16]) | Plant response rating, Soybean (soybean (Glycine max); [17]) | Plant response rating, Soybean (soybean (Glycine max); [18])
5: Plant response rating, Wheat [2, 17] | Plant response rating, Wheat [2, 18] | Plant response rating, Corn (corn (Zea mays) [5]; [17]) | Plant response rating, Nutsedge, Yellow [8, 18]
15: Plant response rating, Corn (corn (Zea mays) [5]; [18])
90: Plant response rating, Galium [3, 18] | Plant response rating, Velvetleaf [9, 19] | Plant response rating, Foxtail, Giant [10, 24] | Plant response rating, Morningglory [11, 13] | Plant response rating, Morningglory [11, 14] | Plant response rating, Morningglory [11, 19]
45: Plant response rating, Velvetleaf [9, 12]
98: Plant response rating, Johnsongrass [1, 18] | Plant response rating, Chickweed [7, 27] | Plant response rating, Chickweed ([7]; 250 g ai/ha, scale 0 to 100) | Plant response rating, Foxtail, Giant [10, 16] | Plant response rating, Foxtail, Giant [10, 17]
